Results: patent US20130171263A1, “Snake Powder Extract For Treatment Of Cancer” (priority 2006, published 2013)

How the values were obtained:
[1] = system: tumor cell lines (K562, Raji, Jurkatt, CEM, MCF-7, MDA-MB-231, MD-MB-468, LNCaP, PC-3, HT-29, HCT-116, PANC-1, GL10-1); assay: Tumor cell proliferation, oxygen biosensor; format: cell-based; details: DMSO, ethanol and PBS solutions, at least 24 hour incubation, FIGS. 6-8
Text: Referring to FIGS. 6, 7, and 8 the effect of snake extract on tumor cell proliferation utilizing the DMSO, ethanol, and PBS solutions, is respectively analyzed. The methodology used to analyze tumor cell proliferation was oxygen biosensor. With this methodology culture plates are coated with an oxygen sensitive fluorescent compound embedded in a gas-permeable and hydrophobic matrix permanently attached to the bottom of a multi-well plate. The amount of fluorescence correlates directly to the rate of oxygen consumption in the well, providing a signal that can be directly correlated to cell growth.
In the experiments in FIGS. 1-8, the experiments were done with an effective amount of each analyzed target cancer cell lines dissolved within each snake extract solution measured as noted in each Figure for at least a 24 hour incubation period.
The following cell lines were utilized in the tests listed above: • Leukemia/Lymphoma: K562, Raji, Jurkatt, CEM; • Breast Carcinoma MCF-7, MDA-MB-231, MD-MB-468; • Prostate Carcinoma LNCaP, PC-3; • Colorectal Carcinoma: HT-29, HCT-116; • Pancreatic Carcinoma: PANC-1; • Gliobastaoma: GL10-1.

Artemia salina = assay: Brine shrimp lethality assay; format: in vivo; details: 24 h, nauplii
Procedure: The eggs of brine shrimp, Airtime salina (Leach), are used in monitoring bioactive compounds. The eggs are readily available in pet shops at low cost and remain viable for years in the dry state. The brine shrimp assay has advantages of being rapid (24 hrs), inexpensive, and simple. No aseptic techniques are required. It easily utilizes a large number of organisms for statistical validation and requires no special equipment and a relatively small amount of sample.
The assay was carried out with Artemia salina eggs. 50 mg of Artemia salina eggs in a beaker containing sea salt (6 g), yeast (0.9 mg) and distilled water (150 ml) were incubated at 27-28° C. for 24 hrs. The newly hatched nauplii were concentrated. From this volume, aliquots of 50 μl (approximately 18-20 nauplii) were pipette directly into a 24 well plates containing sea water (sw), −ve control (DMSO+sw), +ve control (emetine) or different concentrations of extracts (62.5-500 μg/ml). Assay was carried out in triplicate. The plates were sealed and incubated at 27-28° C. for 24 h. At the end of the 24-h incubation period, the content of each well was pipette into a watch glass individually. Survival was assessed by scoring the number of dead nauplii using a microscope. Once counts of dead nauplii had been taken, 0.5 ml of methanol was added to kill all remaining nauplii. The contents of each well were then recorded and result tabulated as (X/Y; where X=number dead and Y=number of dead and alive).

MDA-MB-435 tumor masses = details: cited from earlier work
breast cancer cells = details: cited from earlier work
angiogenesis = details: elicited by basic fibroblast growth factor; cited from earlier work
B16F10 solid tumor = details: cited from earlier work

CC[C@@]1(O)C(=O)OCc2c1cc1n(c2=O)Cc2cc3ccccc3nc2-1 [Camptothecin]
inhibiting cell proliferation [1]: more effective at inhibiting cell proliferation of different cell lines than the snake powder extract

CC[C@H]1CN2CCc3cc(OC)c(OC)cc3[C@@H]2C[C@@H]1C[C@H]1NCCc2cc(OC)c(OC)cc21 [Emetine]
% mortality (Artemia salina; concentration 62.5 (extracts 62.5-500 μg/ml)): 58.2%
% mortality (Artemia salina; concentration 125 (extracts 62.5-500 μg/ml)): 100%
% mortality (Artemia salina; concentration 250 (extracts 62.5-500 μg/ml)): 100%
% mortality (Artemia salina; concentration 500 (extracts 62.5-500 μg/ml)): 100%

Contortrostatin
angiogenesis induced by breast cancer (MDA-MB-435 tumor masses; immunohistochemical quantitation of vascular endothelial cells in tumor tissue): inhibiting angiogenesis
inhibited growth of tumor (MDA-MB-435 tumor masses; injected daily at 5 microgram per mouse): 74%
cytotoxicity to cancer cells (breast cancer cells): not cytotoxic
proliferation of the breast cancer cells in vitro (breast cancer cells): does not inhibit proliferation

Rhodostomin
angiogenesis (angiogenesis): inhibit angiogenesis
survival (B16F10 solid tumor; C57BL/6 mice): prolonged survival
tumor growth (B16F10 solid tumor; subcutaneously inoculated B16F10 solid tumor): suppressed tumor growth
